Results reported in patent US11419833B2, “Nasally administered pharmaceutical composition for the treatment of epilepsy and related disorders” (priority 2020, dated 2022).
Entries after “also recorded” stand apart in the source; their conditions may differ.

What was measured:
PTZ-induced seizures = assay: Acute subcutaneous PTZ-induced seizure test; type: in vivo, mice
Protocol: Anticonvulsant effects of the test compounds were evaluated using subcutaneous PTZ-induced seizure test (subcutaneous PTZ). […] The Z-acid and its analogs were administered intraperitoneally at least 30 min before subcutaneous administration of convulsive dose of PTZ (110 mg/kg). […] Latency to PTZ-induced threshold seizures was also calculated. The latency to threshold seizure is defined as the interval between the time of the PTZ-injection and the occurrence of first episode of threshold seizure. Protection of testing material against PTZ-induced mortality within 24 hours was also evaluated. […] NMRI male mice weighing between 18-22 g were selected for the study. PTZ 110 mg/Kg was administered to the PTZ group and observed the first myoclonic jerk and HLTE.

PTZ-induced kindling = assay: scPTZ-induced chemical kindling model of epileptogenesis; type: in vivo, NMRI mice
Protocol: The chemical kindling was induced according to the modified method of De Sarro i.e. by repeated treatment of mice with sub-convulsive dose of pentylenetetrazole (subcutaneous, 50 mg/kg) on alternate days. Four doses of Z-acid (150 mg/kg/day, 200 mg/kg/day, 250 mg/kg/day, and 300 mg/kg/day) were administered daily (intraperitoneal). However, on the day of PTZ administration, animals were treated with the Z-acid 30 minutes before administering PTZ. After PTZ was injected, each animal was placed separately in a clear plexiglass cage for close observations for 1 hour. The drug control groups received daily valproic acid. The Racine scoring categorization of epileptic seizures pattern was used to monitor the animals (Table 1). The animals showing score 4-5 were considered to be fully kindled. The cumulative kindling score was then calculated. Experiments were terminated once the animals were fully kindled. At the end of each experiment, animals were humanely sacrificed.

[1] = Sub-chronic toxicity profile, intraperitoneal, 3 months; type: in vivo
Protocol: To evaluate the sub-chronic toxicity profile of Z-acid the compound was administered daily into mice at the dose of 300 mg/kg (intraperitoneal) for a period of 3 months. The animals were divided into […] (8 per group) as outlined below: • Group I normal control; • Group II treated daily for 1 week; • Group III treated daily for 2 weeks; • Group IV treated daily for 1 month; • Group V treated daily for 2 months; • Group VI treated daily for 3 months
At the end of the study, animals were anaesthetized, dissected and gross examination of vital organs were performed, along with serum and whole brain samples collection. Serum and brain sample were stored in −20° C. for further examination.

[2] = Pharmacokinetics in plasma and brain after single intraperitoneal dose (GC/MS); type: in vivo; conditions: mice, 300 mg/kg intraperitoneal
Protocol: The pharmacokinetics of Z-acid in both plasma and brain after a single intraperitoneal dose of Z-acid (300 mg/kg) was studied in mice. Animals were sacrificed at 5 min, 15 min, 30 min, 60 min, 120 min, 180 min, and 240 min after the dose administration (n=4 for each time point). Blood samples were obtained in heparin containing vacutainers. The control group consists of the animals receiving no other treatment and this serve as blank plasma and aided in optimization and validation of the GC/MS method. The blood samples were later centrifuged to obtain plasma which was stored at −20° C. for further processing. Likewise, the brain samples were also collected from the sacrificed animals and stored at −20° C. for further processing on GC-MS.

[3] = test system: PTZ-induced epileptiform activity; assay: PTZ-induced epileptiform activity, intraperitoneal administration (EEG protocol); type: in vivo, rats; conditions: for spike discharge: Z-acid 150 mg/kg i.p. or diazepam 5 mg/kg, 10 min after PTZ 100 mg/kg, vs PTZ-injected animals, P<0.01
Protocol: In this set of experiment, effect of Z-acid was investigated on PTZ-induced epileptiform activity. Rats (210±10 g) were divided into six groups as control, diazepam, Z-acid, PTZ, PTZ+diazepam, PTZ+Z-acid with 6 sample size in each group. PTZ was injected at the dose of 100 mg/kg. Z-acid was intraperitoneally injected in anesthetized rats at the dose of 150 mg/kg whereas drug control group was treated with 5 mg/kg dose of diazepam. Saline was used as placebo. PTZ was prepared in saline whereas Z-acid was dissolved in 0.1 N NaOH. EEG was recorded from cortical region of the rat brain.
The protocol was started by anesthetizing rat followed by fixing the animal in stereotaxic apparatus for surgery. The skin was removed to expose the bregma and lambda region of the skull. Three holes of 0.6 mm diameter were drilled with the help of a manual drill. One hole was made on the parietal lobe for the placement of active electrode whereas two were made on the occipital lobes for reference and ground electrodes. A screw with the length of 5 mm and diameter of 0.5 mm was inserted on each hole and electrodes were then connected with the EEG recording system. The recording was started by monitoring the baseline EEG recording for 5 min. After 5 min of noise-free recording, PTZ was injected to induce acute seizures. The EEG recording after the injection of PTZ was continued for 10 min to observe the induction of epileptiform activity. […] After 10 min of recording, Z-acid was injected intraperitoneally to observe its effects on PTZ-induced epileptiform activity.

BDNF = BDNF gene expression (qRT-PCR) in PTZ-induced acute seizure; type: in vivo, rats; conditions: cortex and hippocampus, p<0.01
From the text: (§1) Rats were decapitated after recording the EEG to collect the brain samples. Cortex and hippocampus regions of brain were excised out to conduct analysis of gene expression using qRT-PCR. The tissue samples were processed for RNA isolation followed by synthesis of cDNA using Revert Aid First strand cDNA synthesis kit (Thermo Scientific). The template cDNA were then used for the amplification of BDNF and Cfos using SYBER green qPCR Master mix (Thermo Scientific). The relative gene expression was determined by comparing 2-ΔΔCt values normalized to β-actin.

Cfos = Cfos gene expression (qRT-PCR) in PTZ-induced acute seizure; type: in vivo, rats; conditions: cortex and hippocampus, p<0.01
From the text: as §1

glutamate levels = assay: Glutamate levels (ELISA) in PTZ-induced acute seizure; type: in vivo, rats; conditions: cortex and hippocampus, p<0.01
From the text: Glutamate levels were also estimated in cortex and hippocampus following the administration of Z-acid formulation I. The glutamate levels were estimated using ELISA kit method (Bioassay Technology Laboratory, E1474Ra).

Stability = type: physicochemical
Solubility in water = type: physicochemical
[4] = 300, 400 and 500 mg/Kg intraperitoneal, 30 min before PTZ 110 mg/Kg, compared to PTZ group
[5] = 150 mg/kg intraperitoneal, 10 min after PTZ
[6] = intranasal pre-treatment (Formulation I), vs PTZ
[7] = intraperitoneal experiment, vs PTZ alone

CC1=C/C(=C\C(=O)O)CC(C)(C)C1 [Z-acid, (Z)-2-(3,5,5-trimethyl-2-cyclohexen-1-ylidene) acetic acid]
HLTE (PTZ-induced seizures; [4]): prevented HLTE in all the animals | onset of myoclonic seizure (PTZ-induced seizures; [4]): significantly delayed | seizure scoring (PTZ-induced seizures; 300, 400 and 500 mg/Kg, compared to PTZ group (FIG. 1)): decreased the number seizure scoring significantly and dose dependently | development of kindling induced by scPTZ administration (PTZ-induced kindling; 300 mg/kg daily intraperitoneal, PTZ 50 mg/kg on alternate days): complete inhibition | active dose able to inhibit the process of epileptogenesis (PTZ-induced kindling; daily intraperitoneal, doses tested 150-300 mg/kg/day): 300 mg/kg body weight | signs of toxicity, gross anatomy of organs ([1]; 300 mg/kg daily intraperitoneal, 3 months): did not find any sign of toxicity; also recorded: no signs of toxicity | LFT profile, CBC and LDH, creatinine, and urea levels ([1]; blood samples after 3 months daily dosing 300 mg/kg): normal range | persistence or sequestration in brain ([2]; brain): No evidence | time to disappearance from brain ([2]; brain): ≤ 1 h | time to peak concentration in brain ([2]; brain): ≤ 15 min | apparent volume of distribution ([2]; plasma): 10 L | time to disappearance from plasma ([2]; plasma): 2 to 2.5 h | time to peak concentration in plasma ([2]; plasma): ≤ 5 min | half-life ([2]; mouse, ip, plasma): 1 h | time after administration at which PTZ-induced spikes were significantly reduced [3, 5]: 5 min | time after treatment at which PTZ-induced spikes completely diminished [3, 5]: 7 to 10 min | spike discharge [3]: significantly reduced | BDNF gene expression (BDNF; i.p. treatment, vs PTZ alone): significantly reduced | BDNF gene expression (BDNF; [6]): significantly reduced | Cfos gene expression (Cfos; i.p. treatment, vs PTZ alone): significantly reduced | Cfos gene expression (Cfos; [6]): significantly reduced | glutamate levels (glutamate levels; intranasal experiment (Formulation I), vs PTZ): significantly reduced | glutamate levels (glutamate levels; [7]): significantly reduced | stability under all conditions used in various experiments (Stability): stable | stability in different organic solvents (Stability; room temperature and high temperature): stable

CC1=CC(=CC(=O)O)CC(C)(C)C1 (single isomer, unassigned) [E/Z isomeric mixture, (E/Z)-2,2′-(3,5,5-trimethyl-2-cyclohexen-1-ylidene) acetic acid]
solubility in water (Solubility in water): poorly soluble

CN1C(=O)CN=C(c2ccccc2)c2cc(Cl)ccc21 [diazepam, reference compound]
spike discharge [3]: significantly reduced | BDNF gene expression (BDNF; i.p. treatment, vs PTZ alone): significantly reduced | Cfos gene expression (Cfos; i.p. treatment, vs PTZ alone): significantly reduced | glutamate levels (glutamate levels; [7]): significantly reduced

CCCC(CCC)C(=O)O [valproic acid, reference compound]
seizure pattern till the end of the kindling protocol (PTZ-induced kindling; drug control, daily, compared to PTZ-kindled control group): did not exhibit any seizure pattern
